The source of these data is patent US20110230367A1, “Amphiphilic Peptides Promoting Production of Target miRNA and Method of Regulating Production of Target miRNA” (SNU R&DB FOUNDATION, priority 2009, published 2011).

The Kd is a measure of binding affinity in units of concentration.

One experiment has as its target HBV (hairpin RNA). Nature of the experiment: Dissociation constant by competitive fluorescence anisotropy with rhodamine-rev peptide probe. Type of experiment: binding. The conditions noted are these: Table 6. The protocol: (§1) The binding affinity between the peptide synthesized in <Example 1> and pre-miRNA from <Example 2> were measured by fluorescence anisotropy using competitive binding method. A rev peptide with rhodamine attached at the N-terminal was used as a fluorescent probe and LS-55 luminescence spectrometer from Perkin-Elmer was use for analysis. A constant temperature of 20° C. was maintained by a water bath. The fluorescent intensity was measured by of 200 nM of rhodamine-rev peptide was measured with an excitation wavelength at 550 nm (band path 10 nm) and detection at 580 nm (band path 10 nm). The integration time […]. Each experimental value is the mean value of 5 measurements. A 20 mM of HEPES{4-(2-hydroxyethyl)-1-piperazineethanesulfonic acid} buffer (pH 7.5) containing 140 mM NaCl, 5 mM KCl and 1 mM MgCl2 was used for measuring the dissociation constant. The dissociation constant was determined according to the Mathematical Formula 1 and using Kaledia graph.
(§2) A and Ao are the fluorescence anistropy in the presence or absence of RNA, whereas ΔA is the difference between these two values. [RNA]0 and [Rh-rev]0 are initial concentrations of RNA and rev peptide binding with rhodamine.
(§3) According the method described in <Example 3>, the dissociation constant between second generation peptide and 2 pre-miRNAs synthesized from <Example 2> was determined using fluorescent polarization detection method and fluorescent probe molecule.
(Fluorescence polarisation rises when a labelled molecule tumbles more slowly, as on binding a larger partner.)

The target in another experiment is IRES (hairpin RNA). The experiment is described as above. The format is binding. To be noted: Table 6. As to the method:
as §1, §2, §3

Another experiment concerns the target pre-let7a-1. Described as above. To be noted: for Discrimination ratio pre-let7a-1 (in parenthesis): Kd against other RNA (HBV, IRES, other miRNAs)/Kd against target miRNA. Type of experiment: binding. As to the method: as §1, §2, §3
Another experiment relates to pre-miR16-1. The description is as above. Type of experiment: binding. To be noted: for Discrimination ratio pre-miR16-1 (in parenthesis): Kd against other RNA/Kd against target miRNA. As to the method:
as §1, §2, §3

A further experiment addresses pre-miR24-1. Described as above. Type of experiment: binding. The conditions noted are these: Table 6; for Discrimination ratio pre-miR24-1 (in parenthesis): Kd against other RNA/Kd against target miRNA. As to the method: as §1, §2, §3
The subject of experiment [1] is mature miR16-1 in HCT116 cells. Briefly: Production of mature miRNA in HCT116 cells by northern blotting. The conditions noted are these: 2 μM peptide, 3 hrs, FIG. 4. Type of experiment: cell-based. The protocol: The HCT116 cell was purchased from American Type Culture Collection (ATCC) and was cultured in RPMI1640 medium at 37° C., under 5% CO2. Total RNA was extracted using Trizol reagent (Invitrogen) according to the manufactures recommended protocol.
The change in RNA amount was analyzed by culturing the cells with 2 μM concentration of peptide 2b or peptide 2c and with lipofectamine.
HCT116 cells were treated with 2 μM of peptide 2b, 2c, 1e or 0.2 μg/ml of doxorubicin for 3 hrs before analyzing the production of mature miRNA in total RNA using northern blotting. The 18S rRNA band intensity was used as the loading control. […] Peptide 1e was used as a negative control. Decade marker (Ambion) and 10˜20 μg of total RNA were separated by using 12.5% polyacrylamide gel containing 7M urea in 20 mM of 3-(N-morpholino)propanesulfonic acid (MOPS)-NaOH(pH 7.0) buffer at 350V for 2 hrs. RNA blotting was performed by chemical cross-linking method. Each of the separated RNA was transferred with the neutral nylon membrane (Hybond NX, Amersham/Pharmacia) and crosslinked to the membrane using 1-ethyl-3-(3-dimethylaminopropyl)carbodiimide (EDC). The membrane was prehybridized with the hybridization buffer (Clontech, CA, USA) containing 50 μl of 10 mg/ml of salmon sperm DNA. Next, the isotope labeled probe DNA which is complementary to the miRNA sequence was hybridized for 2 hrs in the same buffer condition.
The probe was isotope labeled with 25 μCi of [γ-^32P] ATP (New England Biolabs) and 5 units of polynucleotide kinase (New England Biolabs). The probe was ethanol precipitated and dissolved in 50 μl of DEPC treated water for use. The membrane was washed twice for 30 min with 200 ml of wash buffer containing 0.3 M NaCl, 0.03 M sodium citrate and 0.05% sodium dodecyl sulfate (SDS)(pH 7.0), then washed twice for 15 min with 200 ml of wash buffer containing 0.015 M NaCl, 0.0015 M sodium citrate and 0.1% SDS(pH 7.0). The membrane was exposed on the phosphorimager screen and each of the band intensity was detected by FLA-3000 and analyzed by using MultiGauge Ver. 3.0 software (Fuji Photo).

The mark [2] stands for this setting: Table 5, second generation peptides, read-out: Kd value against pre-let7a-1.
[3] abbreviates: Table 6, read-out: Kd pre-let7a-1.
[4] abbreviates: Table 5, second generation peptides, read-out: Kd value against pre-miR16-1.
[5] abbreviates: Table 6, read-out: Kd pre-miR16-1.

Entries after “also recorded” stand apart in the source; their conditions may differ. Where two headings read alike, the source gives them in different places.

As for “WKKLLKLLKKWLKLAG [Peptide 2c, Ac-WKKLLKLLKKWLKLAG, 14]”, the Kd on HBV (hairpin RNA) worked out at 460 pM; at IRES (hairpin RNA) it was 460 pM; at pre-let7a-1 (setting [2]) it was 150 pM; at pre-let7a-1 (setting [3]), 150 pM; on pre-miR16-1 (setting [4]) it was 270 pM; on pre-miR16-1 (setting [5]), 270 pM. Moreover, binding at pre-miR24-1 was put at a Kd of 880 pM. In addition, the “Discrimination ratio pre-let7a-1 (in parenthesis)” value with pre-let7a-1 (Table 6) was found to be 2.8. Besides, in the experiment on pre-miR16-1, the “binding with pre-miR16-1” value was “first and second strongest binding”. Moreover, the “Discrimination ratio pre-miR16-1 (in parenthesis)” value in the experiment with pre-miR16-1 (Table 6) came out at 1.4. Moreover, the “Discrimination ratio pre-miR24-1 (in parenthesis)” value in the experiment on pre-miR24-1 is given as 0.41.
With “WKKLLKWLKKLLKLAG [Peptide 2b, Ac-WKKLLKWLKKLLKLAG, 13]”, the Kd at HBV (hairpin RNA) came to 900 pM; at IRES (hairpin RNA) it was 1000 pM; at pre-let7a-1 (setting [2]), 67 pM; on pre-let7a-1 (setting [3]), 67 pM; on pre-miR16-1 (setting [4]) it was 220 pM; at pre-miR16-1 (setting [5]) it was 220 pM. The dissociation constant (Kd) on pre-miR24-1 was 430 pM. The “binding with pre-let7a-1” value with pre-let7a-1 is “strong binding; also recorded: strongest binding”. The “Discrimination ratio pre-let7a-1 (in parenthesis)” value in the experiment on pre-let7a-1 (Table 6) stood at 11. In addition, the “discrimination ratio for pre-let7a-1” value in the experiment on pre-let7a-1 (mean Kd against all hairpin pre-miRNA/Kd against target pre-miRNA) is recorded as 11. Moreover, the “binding with pre-miR16-1” value with pre-miR16-1 is “first and second strongest binding”. The “Discrimination ratio pre-miR16-1 (in parenthesis)” value in the experiment on pre-miR16-1 (Table 6) was found to be 1.1. The “Discrimination ratio pre-miR24-1 (in parenthesis)” value in the experiment with pre-miR24-1 was determined as 1.5. Also, the “level of mature miR16-1” value in experiment [1] is on record as “increased”.
